Test results as given in US7772177B2, “BIR domain binding compounds” (Aegera Therapeutics, Inc., priority 2005, dated 2010).

Tests used:
GST-HIAP2 (cIAP-1) BIR 3 = biological target: T1, GST-HIAP2 (cIAP-1) BIR 3 (Homo sapiens, UniProt Q13490); experiment: Fluorescence polarization-based competition assay, cIAP-1 Bir3; format: binding
T1 construct: made in house; host or cells: E. coli DH5-alpha
Method: GST-HIAP2 (cIAP-1) BIR 3: HIAP2 coding sequence from amino acids 251-363 cloned into PGex4T3 via BamH1 and XhoI. The plasmid was transformed into E. coli DH5α for use in protein expression and purification.
(§1) A fluorescent peptide probe, Fmoc-Ala-Val-Pro-Phe-Tyr(t-Bu)-Leu-Pro-Gly(t-Bu)-Gly-OH was prepared using standard Fmoc chemistry on 2-chlorotrityl chloride resin (Int. J. Pept. Prot. Res. 38:555-561, 1991). Cleavage from the resin was performed using 20% acetic acid in dichloromethane (DCM), which left the side chain still blocked. The C-terminal protected carboxylic acid was coupled to 4′-(aminomethyl)fluorescein (Molecular Probes, A-1351; Eugene, Oreg.) using excess diisopropylcarbodiimide (DIC) in dimethylformamide (DMF) at room temperature and was purified by silica gel chromatography (10% methanol in DCM). The N-terminal Fmoc protecting group was removed using piperidine (20%) in DMF, and purified by silica gel chromatography (20% methanol in DCM, 0.5% HOAc). Finally, the t-butyl side chain protective groups were removed using 95% trifluoroacetic acid containing 2.5% water and 2.5% triisopropyl silane. […] Compound #174 was also used as a fluorescent probe in this assay.
(§2) For all assays, the fluorescence and fluorescence-polarization was evaluated using a Tecan Polarion instrument with the excitation filter set at 485 nm and the emission filter set at 535 nm. For each assay, the concentration of the target protein was first establish by titration of the selected protein in order to produce a linear dose-response signal when incubated alone in the presence of the fluorescent probe. Upon establishing these conditions, the compounds potency (IC50) and selectivity, was assessed in the presence of a fix defined-amount of target protein and fluorescent probe and a 10 point serial dilution of the selected compounds. For each IC50 curve, the assays were run as followed: 25 ul/well of diluted compound in 50 mM MES buffer pH 6.5 were added into a black 96 well plate then 25 ul/well of bovine serum albumin (BSA) at 0.5 mg/ml in 50 mM MES pH 6.5. Auto-fluorescence for each compound was first assessed by performing a reading of the compound/BSA solution alone. Then 25 ul of the fluorescein probe diluted into 50 mM MES containing 0.05 mg/ml BSA were added and a reading to detect quenching of fluorescein signal done. Finally 25 ul/well of the target or control protein (GST-BIRs) diluted at the appropriate concentration in 50 mM MES containing 0.05 mg/ml BSA were added and the fluorescence polarization evaluated.
(§3) For each assay the relative polarization-fluorescence units were plotted against the final concentrations of compound and the IC50 calculated using the Grad pad prism software and/or Cambridge soft. The ki value were derived from the calculated IC50 value as described above and according to the equation described in Nikolovska-Coleska, Z. (2004) Anal Biochem 332, 261-273.
(§4) Compounds exemplified in Table 6 were tested and found to have IC50s in the following ranges: A: >10 μM; B: <10 μM; C: <1 μM using the fluorescence polarization assay, as shown in Table 5. Each of the IC50s was calculated from Graph Pad.

[1] = biological target: T2, XIAP Bir2-Bir3-RING (GST-linker BIR2 BIR3RING) (Homo sapiens, UniProt P98170); experiment: Caspase de-repression assay using cellular extracts (apoptosome), XIAP Bir2-Bir3-RING; format: biochemical; conditions: 293 cell S100 extract
T2 construct: made in house; host or cells: E. coli DH5-alpha
T2 sequence (P98170 93-497): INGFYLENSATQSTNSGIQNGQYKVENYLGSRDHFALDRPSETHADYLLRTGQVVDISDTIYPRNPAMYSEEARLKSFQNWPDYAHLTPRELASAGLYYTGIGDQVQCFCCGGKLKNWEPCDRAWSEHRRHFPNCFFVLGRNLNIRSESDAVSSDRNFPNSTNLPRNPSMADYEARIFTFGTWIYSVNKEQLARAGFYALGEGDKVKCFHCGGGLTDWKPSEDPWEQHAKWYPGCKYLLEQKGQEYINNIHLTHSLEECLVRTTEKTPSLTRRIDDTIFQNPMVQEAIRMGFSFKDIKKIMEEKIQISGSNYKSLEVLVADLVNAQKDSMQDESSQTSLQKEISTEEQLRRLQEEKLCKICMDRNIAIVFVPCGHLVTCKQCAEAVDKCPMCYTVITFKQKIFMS
Method: (§5) 100 ug of 293 cell S100 extract and 0.25 uM-2 uM of GST-Xiap fusion protein (GST-BIR 3RING, GST-linker BIR2 BIR3RING) were co-incubated with serial dilutions of compound (0.02 uM-40 uM). Extracts were activated by adding 1 mM dATP, 0.1 mM ALLN, 133 ug Cytochrome C (final concentrations), and incubating at 37° C. for 25 minutes. All reactions and dilutions used S100 buffer (50 mM Pipes pH 7.0, 50 mM KCl, 0.5 mM EGTA pH 8.0, 2 mM MgCl2 supplemented with 1/1000 dilutions of 2 mg/ml Cytochalisin B, 2, mg/ml Chymotstatin, Leupeptin, Pepstatin, Antipain, 0.1M PMSF, 1M DTT). Final reaction volume was 30 ul. Caspase-3 activity was measured by overlaying 30 ul of a 0.4 mM DEVD-AMC solution. AMC cleavage was measured in a TECAN spectrophotometer at 360 nm excitation and 444 nm emission, on a kinetic cycle of 1 hour with readings taken every 5 minutes. Caspase activity was calculated as Vo of AMC fluorescence/sec. Caspase de-repression by our compounds were compared to fully activated extract and activated extract repressed by the presence of XIAP fusion protein.
(§6) Results: Compounds were also tested in the apoptosome assay and the linker-BIR2/caspase-3 inhibition assay and found to have IC50s in the following ranges: A: >10 μM; B: <10 μM; C: <1 μM, as shown in Table 7.

[2] = biological target: T3, XIAP Bir3-RING (GST-BIR 3RING) (Homo sapiens, UniProt P98170); experiment: Caspase de-repression assay using cellular extracts (apoptosome), XIAP Bir3-RING; format: biochemical; conditions: 293 cell S100 extract
T3 construct: made in house; host or cells: E. coli DH5-alpha
T3 sequence (P98170 246-497): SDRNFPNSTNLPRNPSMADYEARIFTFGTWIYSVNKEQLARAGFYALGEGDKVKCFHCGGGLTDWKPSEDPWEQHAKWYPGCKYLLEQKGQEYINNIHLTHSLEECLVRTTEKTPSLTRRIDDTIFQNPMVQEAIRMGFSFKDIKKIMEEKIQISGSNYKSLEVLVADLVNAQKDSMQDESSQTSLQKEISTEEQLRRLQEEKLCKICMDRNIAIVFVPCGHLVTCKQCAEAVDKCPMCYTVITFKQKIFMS
Method: as §5, §6

GST-HIAP1(cIAP-2) BIR 3 = biological target: T4, GST-HIAP1(cIAP-2) BIR 3 (Homo sapiens, UniProt Q13489); experiment: Fluorescence polarization-based competition assay, cIAP-2 Bir3; format: binding
T4 construct: made in house; host or cells: E. coli DH5-alpha
T4 sequence (Q13489 236-349): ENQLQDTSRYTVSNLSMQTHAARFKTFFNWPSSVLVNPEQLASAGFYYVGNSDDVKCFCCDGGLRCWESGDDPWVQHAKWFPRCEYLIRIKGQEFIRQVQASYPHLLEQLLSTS
Method: GST-HIAP1(cIAP-2) BIR 3: HIAP1 coding sequence from amino acids 236-349, cloned into PGex4T3 via BamH1 and XhoI. The plasmid was transformed into E. coli DH5α for use in protein expression and purification.
as §1, §2, §3, §4

GST-XIAP BIR3RING = biological target: T5, GST-XIAP BIR3RING (Homo sapiens, UniProt P98170); experiment: Fluorescence polarization-based competition assay, XIAP Bir3-RING; format: binding
T5 construct: made in house; host or cells: E. coli DH5-alpha
T5 sequence (P98170 246-497): as the sequence (P98170 246-497) above
Method: GST-XIAP BIR3RING: XIAP coding sequence amino acids 246-497 cloned into PGEX2T1 via BamH1 and AVA I. The plasmid was transformed into E. coli DH5α for use in protein expression and purification.
as §1, §2, §3, §4

[3] = biological target: T6, caspase-3 inhibited by linker BIR2-BIR3-RING of XIAP (Homo sapiens, UniProt P98170); experiment: Caspase-3 linker-BIR2-BIR3-RING derepression assay; format: biochemical
T6 construct: made in house; host or cells: E. coli DH5-alpha (GST-XIAP); E. coli AD494 (His-caspase-3)
T6 sequence (P98170 93-497): as the sequence (P98170 93-497) above
Method: In order to determine the relative activity of the selected compound against BIR2, an in vitro assay was used where caspase-3 was inhibited by linker-BIR2 or linker BIR2-BIR3-RING of XIAP. Briefly, 1.5 ul of the enzyme, 0.25 uM to 2 uM of GST-Xiap fusion protein (GST-linker BIR2, GST-linker BIR2BIR3RING) were co-incubated with serial dilutions of compound (80 uM-0.04 uM). Caspase 3 activity was measured by overlaying 25 ul of a 0.4 mM DEVD-AMC solution. Final reaction volume was 100 ul. All dilutions were performed in caspase buffer (50 mM Hepes pH 7.4, 100 mM NaCl, 10% sucrose, 1 mM EDTA, 10 mM DTT, 0.1% CHAPS (Stennicke, H. R., and Salvesen, G. S. (1997). Biochemical characteristics of caspase-3, -6, -7, and -8. J. Biol. Chem. 272, 25719-25723)).
The fluorescent AMC released from the caspase-3 hydrolysis of the substrate was measured in a TECAN spectrophotometer at 360 nm excitation and 444 nm emission, on a kinetic cycle of 30 minutes with readings taken every 2 minutes. Caspase activity was calculated as Vo of AMC fluorescence/sec. Caspase de-repression by our compounds were compared to caspase-3 alone and caspase 3 repressed by the presence of XIAP fusion protein.
as §6

T1 sequence (Q13490 251-363): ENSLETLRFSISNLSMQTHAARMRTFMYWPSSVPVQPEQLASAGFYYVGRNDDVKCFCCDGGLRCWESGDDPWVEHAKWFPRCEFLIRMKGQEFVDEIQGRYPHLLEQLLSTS

| Compound | IC50 (GST-HIAP2 (cIAP-1) BIR 3) | IC50 [1] | IC50 [2] | IC50 (GST-HIAP1(cIAP-2) BIR 3) | IC50 (GST-XIAP BIR3RING) | IC50 [3] |
| --- | --- | --- | --- | --- | --- | --- |
| CC(C)[C@H](NC(=O)[C@H](C)N)C(=O)N1CCC[C@H]1CN(C(=O)C(F)(F)F)[C@H]1CCCc2ccccc21 [Compound 4] | < 10 µM | > 10 µM | > 10 µM | < 10 µM | < 10 µM | > 10 µM |
| CC[C@H](N)C(=O)N[C@H](C(=O)N1CCC[C@H]1CN([C@H](C)c1ccccc1)S(C)(=O)=O)C(C)C [Compound 6] | > 10 µM | < 10 µM | < 1 µM | > 10 µM | > 10 µM | > 10 µM |
| CC[C@H](N)C(=O)N[C@H](C(=O)N1CCC[C@H]1CN(C(C)=O)[C@H](C)c1ccccc1)C(C)C [Compound 7] | – | – | < 1 µM | – | > 10 µM | > 10 µM |
| CC(=O)N(Cc1ccccn1)C[C@@H]1CCCN1C(=O)[C@@H](NC(=O)[C@H](C)N)C(C)C [Compound 8] | < 10 µM | > 10 µM | < 1 µM | < 10 µM | > 10 µM | > 10 µM |
| CC(=O)N(CCCc1ccccc1)C[C@@H]1CCCN1C(=O)[C@@H](NC(=O)[C@H](C)N)C(C)C [Compound 11] | < 10 µM | – | < 1 µM | < 10 µM | < 10 µM | – |
| CC(C)[C@H](NC(=O)[C@H](C)N)C(=O)N1CCC[C@H]1CN(CCc1ccccc1)C(=O)COc1ccccc1 [Compound 28] | < 1 µM | – | < 1 µM | < 1 µM | < 1 µM | > 10 µM |
| CN[C@@H](C)C(=O)N[C@H](C(=O)N1CCC[C@H]1CN(CCc1ccccc1)C(=O)CCN)C(C)(C)C [Compound 33] | < 1 µM | – | < 1 µM | < 1 µM | < 1 µM | > 10 µM |

The next lines start with the values.

| IC50 (GST-HIAP2 (cIAP-1) BIR 3) | IC50 [1] | IC50 [2] | IC50 (GST-HIAP1(cIAP-2) BIR 3) | IC50 (GST-XIAP BIR3RING) | IC50 [3] | Compound |
| --- | --- | --- | --- | --- | --- | --- |
| < 10 µM | > 10 µM | > 10 µM | < 10 µM | < 10 µM | – | CC[C@H](N)C(=O)N[C@H](C(=O)N1CCC[C@H]1CNCCc1ccccc1)C(C)C [Compound 2] |
| < 10 µM | > 10 µM | < 1 µM | < 10 µM | < 10 µM | < 10 µM | CC(C)[C@H](NC(=O)[C@H](C)N)C(=O)N1CCC[C@H]1CN(C(=O)C(F)(F)F)[C@@H]1CCCc2ccccc21 [Compound 3] |
| < 1 µM | > 10 µM | < 1 µM | < 1 µM | < 10 µM | < 10 µM | CC[C@H](N)C(=O)N[C@H](C(=O)N1CCC[C@H]1CN(CCc1ccccc1)C(C)=O)C(C)C [Compound 5] |
| < 1 µM | – | < 1 µM | < 1 µM | < 1 µM | > 10 µM | CC(C)[C@H](NC(=O)[C@H](C)N)C(=O)N1CCC[C@H]1CN(CCc1ccccc1)C(=O)c1ccccc1 [Compound 24] |
| < 1 µM | – | < 1 µM | < 1 µM | < 10 µM | > 10 µM | COCC(=O)N(CCc1ccccc1)C[C@@H]1CCCN1C(=O)[C@@H](NC(=O)[C@H](C)N)C(C)C [Compound 25] |
| < 1 µM | – | > 10 µM | < 1 µM | < 1 µM | > 10 µM | CN[C@@H](C)C(=O)N[C@H](C(=O)N1CCC[C@H]1CN(CCc1ccccc1)C(=O)OCc1ccccc1)C(C)(C)C [Compound 26] |
| < 1 µM | – | < 1 µM | < 1 µM | < 1 µM | > 10 µM | CN[C@@H](C)C(=O)N[C@H](C(=O)N1CCC[C@H]1CN(CCc1ccccc1)C(=O)CN)C(C)(C)C [Compound 32] |
| < 1 µM | – | < 1 µM | < 1 µM | < 1 µM | > 10 µM | CNCC(=O)N(CCc1ccccc1)C[C@@H]1CCCN1C(=O)[C@@H](NC(=O)[C@H](C)NC)C(C)(C)C [Compound 34] |
| < 1 µM | – | < 1 µM | < 1 µM | < 1 µM | > 10 µM | CN[C@@H](C)C(=O)N[C@H](C(=O)N1CCC[C@H]1CN(CCc1ccccc1)C(=O)CCC(=O)O)C(C)(C)C [Compound 35] |
